We go through four compounds from patent publication US20210386722A1, “Treatment of Covid-19 with Nitroxides” (priority 2021, published 2021).

In data set [1] the test system is SARS-COV-2. Briefly: Treatment of a patient with presumptive Covid-19 (case report). The data set is classed as in vivo, human. From the text:
A septuagenarian person experienced sudden frightening onset of severe headache, marked nausea and vomiting, pharyngitis, severe upper respiratory congestion, fever, chills, myalgia, weakness, malaise, and mild to moderate pulmonary congestion. O2 saturation=96%. Patient had been taking Tempol off-and-on for years for cancer prophylaxis and for its possible antiaging activity, as well as some miscellaneous actions such as treatment of periodontitis and osteoarthritis. But, concerned that it would interfere with their activity, they had stopped Tempol about 6 weeks before receiving influenza (Fluvax) and Zoster (Zostavax) immunizations. The presumptive-diagnosis was “Covid-19”, possibly from a medically-related exposure.
Treatment: Nausea and vomiting continued without respite for several hours. Anti-nausea tablets were twice regurgitated intact. Accordingly, treatment was initiated with 30 mg of Tempol PO as the hydroxylamine in a 6% water solution containing 90 mg vitamin-C. Patient kept this down. Along with Tempol-zinc gargles for pharyngitis, intranasal treatment was then initiated with a medication-soaked cotton swab and insufflation, repeated approximately q 6 h as symptoms returned. This was followed by similar doses of Tempol-H three and six hours later, repeated 2-3 times a day, PO for the next ten days. Subsequent intranasal treatment was also repeated 1-3 times a day for 10 days, as needed, titrating to relief of oropharyngeal symptoms as they recurred. On days 2-3, treatment was briefly initiated with hydroxychloroquine, zinc, doxycycline, ivermectin, and famotidine, then withdrawn.

Data set [2] has as its system SARS-COV-2. As to conditions: in vivo; cited from earlier work.
Data set [3] deals with SARS-COV-2. Briefly: Person on Tempol heavily exposed to patient 1. The conditions noted are these: Tempol 60 mg/day. Type of data set: in vivo, human. From the text: By days 5-7 remaining symptoms were mild reversible-on-treatment nasal congestion, pharyngitis, and malaise. […] PCR for SARS-COV-2 RNA was negative at day 10. While not surprising considering the clinical course, in retrospect, this may have signified some direct antiviral effect of the application of Tempol directly to the upper respiratory mucosa and oropharynx by insufflation, inhalation, or gargling. […] After patient discontinued treatment for several weeks, subsequent putative recurrent post-acute symptoms of Covid-19 such as malaise, myalgia, and shortness of breath appeared.

In data set [4] the test system is nonrespiratory coronavirus. As to conditions: mouse, in vivo; cited from earlier work.
The subject of data set [5] is SARS-COV-2. The conditions noted are these: potentially physiological Tempol concentrations; cited from earlier work.
The target in data set [6] is T1, SARS-COV-2 replicase (RNA-Dependent RNA polymerase) (Severe acute respiratory syndrome coronavirus 2, UniProt P0DTD1).
T1 construct: SARS-COV-2 replicase (RNA-Dependent RNA polymerase)
As to conditions: by oxidizing iron-sulfur centers; cited from earlier work.

Molecules are shown by their SMILES.

For the compound `CC1(C)CC(O)CC(C)(C)N1O` [Tempol-H], the pulmonary congestion result in the data set with SARS-COV-2 [1] (after initiation of treatment) is recorded as “cleared somewhat”. Besides, the nasal congestion result in the data set with SARS-COV-2 [1] (repeated intranasal treatment (soaked cotton swab and insufflation)) is reported as “quickly reversibly-eased”. Further, the “events experienced by the patient during treatment” value with SARS-COV-2 [1] (that night and several subsequent ones) is on record as ““vivid dreaming””. Also, the headache result in the data set on SARS-COV-2 [1] (within one to two hours of initiation of treatment) is given as “eased significantly”.

As for `CCN(CCO)CCCC(C)Nc1ccnc2cc(Cl)ccc12` (centres unmarked) [hydroxychloroquine], the “efficacy of systemic treatment of Covid-19” value in the data set with SARS-COV-2 [2] is “ineffective or only marginally-effective”.

As for `CC1(C)CC(O)CC(C)(C)N1[O]` [Tempol, 4-hydroxy-TEMPO], the “PCR for SARS-COV-2 RNA” value in the data set on SARS-COV-2 [1] (day 10) is on record as “negative”. In addition, the overall symptoms entry in the data set with SARS-COV-2 [1] (days 8-9, excepting slight malaise) is listed as “essentially asymptomatic”. The “recurrent post-acute symptoms of Covid-19 (malaise, myalgia, shortness of breath)” value in the data set on SARS-COV-2 [1] (further treatment as above plus lung inhalation of 0.1 ml of 6% Tempol or Tempol-H solution) is “responded reversibly”. Also, in the data set with SARS-COV-2 [1] (same doses as Tempol-H), the “efficacy of Tempol itself (non-reduced form)” value is recorded as “effective at the same doses”. In addition, in the data set with SARS-COV-2 [3], the “development of coronavirus disease after heavy exposure” value is recorded as “did not develop clinically-significant coronavirus disease”. Also, the murine viral encephalomyelitis entry in data set [4] is on record as “ameliorates”. In the data set with SARS-COV-2 [5], the “viral replication in vitro” value is on record as “markedly inhibits viral replication”. Moreover, in data set [6], the “effect on replicase enzyme” value is reported as “inactivates this key enzyme”.

As to `CCC(CC)COC(=O)[C@H](C)N[P@](=O)(OC[C@H]1O[C@@](C#N)(c2ccc3c(N)ncnn23)[C@H](O)[C@@H]1O)Oc1ccccc1` [Remdisivir], the “efficacy of systemic treatment of Covid-19” value in the data set on SARS-COV-2 [2] is “ineffective or only marginally-effective”.
